Experimental data from patent US20250019385A1, “SPIROCYCLIC ANNULATED 2-AMINO-3-CYANO THIOPHENES AND DERIVATIVES FOR THE TREATMENT OF CANCER” (Boehringer Ingelheim International GmbH, priority 2023, published 2025).
In brackets after ≈: the same amount, converted by molar mass.

Tested on: not listed separately
Experiment: Solubility measurement (DMSO solution precipitation method)
Format: physicochemical
Settings: aqueous buffer, kinetic from dmso stock, McIlvaine buffer pH 4.5, 24 h, read-out: solubility pH 4.5
How it was run: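 A 10 mM DMSO stock was diluted to 250 μM final in McIlvaine buffer at pH 4.5 or 6.8, then shaken 24 h at ambient temperature. After filtering off precipitate, filtrate concentration was quantified by LC-UV against a fully dissolved reference in acetonitrile/water (1:1).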
In the case of C[C@H](Oc1nc(-c2onc3c2CCC[C@@]32CCCc3sc(N)c(C#N)c32)nc2c1cnn2[C@@H]1CCOC1)[C@@H]1CCCN1C [I-43], the solubility at 24 h is reported as > 147 µg/mL.
In the case of C[C@H](Oc1nc(-c2onc3c2CCC[C@@]32CCCc3sc(N)c(C#N)c32)nc2c1n(C)c(=O)n2[C@H]1CCOC1)[C@@H]1CCCN1C [I-9], the solubility at 24 h is reported as > 149 µg/mL.
In the case of C[C@H](Oc1nc(-c2onc3c2CCC[C@@]32CCCc3sc(N)c(C#N)c32)nc2c1n(C)c(=O)n2C12COC(C1)C2)[C@@H]1CCCN1C [I-15], the solubility at 24 h is reported as > 150 µg/mL.
For CO[C@@H]1C[C@@H]([C@H](C)Oc2nc(-c3onc4c3CCC[C@@]43CCCc4sc(N)c(C#N)c43)nc3c2n(C)c(=O)n3[C@@H]2CCCOC2)N(C)C1 [I-14], the solubility at 24 h was > 163 µg/mL.
In the case of C[C@H](Oc1nc(-c2noc3c2CCC[C@@]32CCCc3sc(N)c(C#N)c32)nc2c1CCO[C@]21CCOC1)[C@@H]1CCCN1C [II-9b], the solubility at 24 h is reported as > 141 µg/mL.
In the case of C[C@H](Oc1nc(-c2onc3c2CCC[C@@]32CCCc3sc(N)c(C#N)c32)nc2c1n(C)c(=O)n2[C@@H]1CCOC1)[C@@H]1[C@H](F)CCN1C [I-4], the solubility at 24 h is reported as > 152 µg/mL.
For C[C@H](Oc1nc(-c2onc3c2CCC[C@@]32CCCc3sc(N)c(C#N)c32)nc2c1n(C)c(=O)n2[C@@H]1CCOC1)[C@@H]1C[C@@H]2C[C@@H]2N1C [I-28], the solubility at 24 h was > 166 µg/mL.
With CO[C@@H]1C[C@@H]([C@H](C)Oc2nc(-c3noc4c3CCC[C@@]43CCCc4sc(N)c(C#N)c43)nc3c2COC[C@]32CCOC2)N(C)C1 [II-11] the solubility at 24 h was > 144 µg/mL.

Same assay, conditions: aqueous buffer, kinetic from dmso stock, McIlvaine buffer pH 6.8, 24 h, read-out: solubility pH 6.8
With C[C@H](Oc1nc(-c2onc3c2CCC[C@@]32CCCc3sc(N)c(C#N)c32)nc2c1cnn2[C@@H]1CCOC1)[C@@H]1CCCN1C [I-43] the solubility at 24 h was 113 µg/mL (≈ 188 µM).
In the case of C[C@H](Oc1nc(-c2onc3c2CCC[C@@]32CCCc3sc(N)c(C#N)c32)nc2c1n(C)c(=O)n2[C@H]1CCOC1)[C@@H]1CCCN1C [I-9], the solubility at 24 h is reported as > 144 µg/mL.
With C[C@H](Oc1nc(-c2onc3c2CCC[C@@]32CCCc3sc(N)c(C#N)c32)nc2c1n(C)c(=O)n2C12COC(C1)C2)[C@@H]1CCCN1C [I-15] the solubility at 24 h was > 153 µg/mL.
With CO[C@@H]1C[C@@H]([C@H](C)Oc2nc(-c3onc4c3CCC[C@@]43CCCc4sc(N)c(C#N)c43)nc3c2n(C)c(=O)n3[C@@H]2CCCOC2)N(C)C1 [I-14] the solubility at 24 h was < 1 µg/mL.
For C[C@H](Oc1nc(-c2noc3c2CCC[C@@]32CCCc3sc(N)c(C#N)c32)nc2c1CCO[C@]21CCOC1)[C@@H]1CCCN1C [II-9b], the solubility at 24 h was > 137 µg/mL.
Molecule C[C@H](Oc1nc(-c2onc3c2CCC[C@@]32CCCc3sc(N)c(C#N)c32)nc2c1n(C)c(=O)n2[C@@H]1CCOC1)[C@@H]1[C@H](F)CCN1C [I-4] has a solubility at 24 h of 28 µg/mL (≈ 43.2 µM).
Work on C[C@H](Oc1nc(-c2onc3c2CCC[C@@]32CCCc3sc(N)c(C#N)c32)nc2c1n(C)c(=O)n2[C@@H]1CCOC1)[C@@H]1C[C@@H]2C[C@@H]2N1C [I-28] yielded a solubility at 24 h of 16 µg/mL (≈ 24.9 µM).
With CO[C@@H]1C[C@@H]([C@H](C)Oc2nc(-c3noc4c3CCC[C@@]43CCCc4sc(N)c(C#N)c43)nc3c2COC[C@]32CCOC2)N(C)C1 [II-11] the solubility at 24 h was 45 µg/mL (≈ 71.1 µM).

Biological target: KRAS (G12C)::SOS1 protein-protein interaction (Homo sapiens (Human), UniProt P01116, C118S/C51S/C80L/G12C)
Sequence (P01116 other isoform, or with tags, fused parts or gaps G12C/C51S/C80L/C118S): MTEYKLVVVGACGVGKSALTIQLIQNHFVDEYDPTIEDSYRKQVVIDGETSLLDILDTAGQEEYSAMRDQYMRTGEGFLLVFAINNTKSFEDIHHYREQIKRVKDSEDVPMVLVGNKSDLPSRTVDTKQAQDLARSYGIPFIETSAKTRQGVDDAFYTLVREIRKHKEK
Experiment: KRAS::SOS1 AlphaScreen binding assay (KRAS G12C)
Settings: GDP
How it was run: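 Biotinylated KRAS G12C 1-169 (C51S/C80L/C118S, 7.5 nM) and GST-SOS1 564-1049 (5 nM) with 10 μM GDP in PBS, 0.1% BSA, 0.05% Tween 20 were incubated 30 min with compounds (top 100 μM, eleven fivefold dilutions). AlphaScreen beads were then added for 60 min at room temperature in the dark. IC50 came from a 4-parameter logistic fit.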
In the case of C[C@H](Oc1nc(-c2onc3c2CCC[C@@]32CCCc3sc(N)c(C#N)c32)nc2c1cnn2[C@@H]1CCOC1)[C@@H]1CCCN1C [I-43], the IC50 is reported as 2 nM.
Work on C[C@H](Oc1nc(-c2onc3c2CCC[C@@]32CCCc3sc(N)c(C#N)c32)nc2c1n(C)c(=O)n2[C@H]1CCOC1)[C@@H]1CCCN1C [I-9] yielded an IC50 of 2 nM.
In the case of C[C@H](Oc1nc(-c2onc3c2CCC[C@@]32CCCc3sc(N)c(C#N)c32)nc2c1n(C)c(=O)n2C12COC(C1)C2)[C@@H]1CCCN1C [I-15], the IC50 is reported as 2 nM.
CO[C@@H]1C[C@@H]([C@H](C)Oc2nc(-c3onc4c3CCC[C@@]43CCCc4sc(N)c(C#N)c43)nc3c2n(C)c(=O)n3[C@@H]2CCCOC2)N(C)C1 [I-14] showed an IC50 of 2 nM.
With C[C@H](Oc1nc(-c2noc3c2CCC[C@@]32CCCc3sc(N)c(C#N)c32)nc2c1CCO[C@]21CCOC1)[C@@H]1CCCN1C [II-9b] the IC50 was 1 nM.
With C[C@H](Oc1nc(-c2onc3c2CCC[C@@]32CCCc3sc(N)c(C#N)c32)nc2c1n(C)c(=O)n2[C@@H]1CCOC1)[C@@H]1[C@H](F)CCN1C [I-4] the IC50 was 2 nM.
For C[C@H](Oc1nc(-c2onc3c2CCC[C@@]32CCCc3sc(N)c(C#N)c32)nc2c1n(C)c(=O)n2[C@@H]1CCOC1)[C@@H]1C[C@@H]2C[C@@H]2N1C [I-28], the IC50 was 2 nM.
In the case of CO[C@@H]1C[C@@H]([C@H](C)Oc2nc(-c3noc4c3CCC[C@@]43CCCc4sc(N)c(C#N)c43)nc3c2COC[C@]32CCOC2)N(C)C1 [II-11], the IC50 is reported as 2 nM.

Tested on: MKN1 cells
Experiment: MKN1 CTG proliferation assay (120 h) (gastric cancer, wt amplified)
Format: cell-based
Settings: Homo sapiens, MKN-1
How it was run: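 Cells were seeded at 200 per well in RPMI-1640 with 10% FCS, grown overnight, then exposed to logarithmic compound dilutions in duplicate for 120 h. Viability was read by CellTiter-Glo luminescence as percent of DMSO controls, with untreated T0 cells measured at dosing. IC50 came from four-parameter non-linear regression.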
C[C@H](Oc1nc(-c2onc3c2CCC[C@@]32CCCc3sc(N)c(C#N)c32)nc2c1cnn2[C@@H]1CCOC1)[C@@H]1CCCN1C [I-43] gave an IC50 of 155 nM.
For C[C@H](Oc1nc(-c2onc3c2CCC[C@@]32CCCc3sc(N)c(C#N)c32)nc2c1n(C)c(=O)n2[C@H]1CCOC1)[C@@H]1CCCN1C [I-9], the IC50 was 135 nM.
C[C@H](Oc1nc(-c2onc3c2CCC[C@@]32CCCc3sc(N)c(C#N)c32)nc2c1n(C)c(=O)n2C12COC(C1)C2)[C@@H]1CCCN1C [I-15] gave an IC50 of 47 nM.
CO[C@@H]1C[C@@H]([C@H](C)Oc2nc(-c3onc4c3CCC[C@@]43CCCc4sc(N)c(C#N)c43)nc3c2n(C)c(=O)n3[C@@H]2CCCOC2)N(C)C1 [I-14] showed an IC50 of 48 nM.
For C[C@H](Oc1nc(-c2noc3c2CCC[C@@]32CCCc3sc(N)c(C#N)c32)nc2c1CCO[C@]21CCOC1)[C@@H]1CCCN1C [II-9b], the IC50 was 19 nM.
Molecule C[C@H](Oc1nc(-c2onc3c2CCC[C@@]32CCCc3sc(N)c(C#N)c32)nc2c1n(C)c(=O)n2[C@@H]1CCOC1)[C@@H]1[C@H](F)CCN1C [I-4] has an IC50 of 509 nM.
Molecule C[C@H](Oc1nc(-c2onc3c2CCC[C@@]32CCCc3sc(N)c(C#N)c32)nc2c1n(C)c(=O)n2[C@@H]1CCOC1)[C@@H]1C[C@@H]2C[C@@H]2N1C [I-28] has an IC50 of 134 nM.
For CO[C@@H]1C[C@@H]([C@H](C)Oc2nc(-c3noc4c3CCC[C@@]43CCCc4sc(N)c(C#N)c43)nc3c2COC[C@]32CCOC2)N(C)C1 [II-11], the IC50 was 6 nM.

Biological target: KRAS (G12D)::SOS1 protein-protein interaction (Homo sapiens (Human), UniProt P01116, G12D)
Sequence (P01116 other isoform, or with tags, fused parts or gaps G12D): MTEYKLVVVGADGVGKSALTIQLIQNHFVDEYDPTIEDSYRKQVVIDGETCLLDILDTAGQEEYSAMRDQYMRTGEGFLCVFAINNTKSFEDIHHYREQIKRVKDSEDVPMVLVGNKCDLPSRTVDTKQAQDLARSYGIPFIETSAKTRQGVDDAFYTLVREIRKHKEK
Experiment: KRAS::SOS1 AlphaScreen binding assay (KRAS G12D)
Settings: GDP
How it was run: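 AlphaScreen assay with KRAS G12D (1-169, 6His/avi-tagged, 10 nM), GST-SOS1 564-1049 (5 nM) and GDP (10 μM) in PBS, 0.1% BSA, 0.05% Tween 20; compound up to 100 μM top concentration, eleven fivefold dilutions in duplicate. After 30 min, glutathione acceptor and streptavidin donor beads (10 μg/mL each) were added and signal read after a further 60 min at room temperature in the dark; IC50 from 4-parameter logistic fit.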
Work on C[C@H](Oc1nc(-c2onc3c2CCC[C@@]32CCCc3sc(N)c(C#N)c32)nc2c1cnn2[C@@H]1CCOC1)[C@@H]1CCCN1C [I-43] yielded an IC50 of 2 nM.
Molecule C[C@H](Oc1nc(-c2onc3c2CCC[C@@]32CCCc3sc(N)c(C#N)c32)nc2c1n(C)c(=O)n2[C@H]1CCOC1)[C@@H]1CCCN1C [I-9] has an IC50 of 2 nM.
For C[C@H](Oc1nc(-c2onc3c2CCC[C@@]32CCCc3sc(N)c(C#N)c32)nc2c1n(C)c(=O)n2C12COC(C1)C2)[C@@H]1CCCN1C [I-15], the IC50 was 2 nM.
For CO[C@@H]1C[C@@H]([C@H](C)Oc2nc(-c3onc4c3CCC[C@@]43CCCc4sc(N)c(C#N)c43)nc3c2n(C)c(=O)n3[C@@H]2CCCOC2)N(C)C1 [I-14], the IC50 was 1 nM.
For C[C@H](Oc1nc(-c2noc3c2CCC[C@@]32CCCc3sc(N)c(C#N)c32)nc2c1CCO[C@]21CCOC1)[C@@H]1CCCN1C [II-9b], the IC50 was 1 nM.
In the case of C[C@H](Oc1nc(-c2onc3c2CCC[C@@]32CCCc3sc(N)c(C#N)c32)nc2c1n(C)c(=O)n2[C@@H]1CCOC1)[C@@H]1[C@H](F)CCN1C [I-4], the IC50 is reported as 4 nM.
Molecule C[C@H](Oc1nc(-c2onc3c2CCC[C@@]32CCCc3sc(N)c(C#N)c32)nc2c1n(C)c(=O)n2[C@@H]1CCOC1)[C@@H]1C[C@@H]2C[C@@H]2N1C [I-28] has an IC50 of 4 nM.
Molecule CO[C@@H]1C[C@@H]([C@H](C)Oc2nc(-c3noc4c3CCC[C@@]43CCCc4sc(N)c(C#N)c43)nc3c2COC[C@]32CCOC2)N(C)C1 [II-11] has an IC50 of 1 nM.
